In general, MIC refers to the smallest concentration in the dilution series that meets the test's criterion for growth inhibition. Lower therefore signals a more susceptible organism.

From patent US8147852B2, “Modified azole compounds as antifungal and antibacterial agents” (Barrier Therapeutics, Inc., priority 2006, dated 2012) come the findings set out here.

Structures are written as SMILES. ≈ marks a conversion by molar mass, not a printed value.

What all share (type): cell-based
One assay relates to C. tropicalis. The experiment in a line: MIC100 against C. tropicalis. The settings on record: Candida tropicalis; C. tropicalis 19596(w.t), wild type; 48 h.
Another assay relates to C. glabrata. In words: MIC100 against C. glabrata strains. The settings on record: Nakaseomyces glabratus, 48 h.
The next assay relates to C. albicans. In words: MIC100 against C. albicans strains. The settings on record: Candida albicans, 48 h.

Turning to `Clc1ccc(COC(Cn2ccnc2)c2ccc(Cl)cc2Cl)c(Cl)c1` (stereo not shown) [miconazole], the MIC in the assay with C. tropicalis was 8.3 µM (≈ 3.45 µg/mL); in the assay with C. glabrata (C. glabrata 05/1032(r), resistant), 8.3 µM (≈ 3.45 µg/mL); against C. glabrata (C. glabrata 05/1414(r), resistant) it was 17 µM (≈ 7.07 µg/mL); in the assay with C. glabrata (C. glabrata 19371(w.t.), wild type), 4.17 µM (≈ 1.74 µg/mL); against C. albicans (C. albicans 19457(w.t), wild type) it was 4.17 µM (≈ 1.74 µg/mL); with C. albicans (C. albicans 19507(r), resistant), 4.17 µM (≈ 1.74 µg/mL). The same molecule gave an MIC against C. albicans (C. albicans 20126(r), resistant) of 17 µM (≈ 7.07 µg/mL).
